We go through two compounds from patent publication US6391309B1, “Method of preparing and using isoflavones for the treatment of female symptoms” (Archer Daniesl Midland Company, priority 1996, dated 2002).

Series [1] can be described thus: Solubility of isoflavones in distilled water at 37° C., HPLC after filtration. The format is physicochemical. To be noted: 0.02% in distilled water, 17 hours, 0.2 micron filter. As for the experimental part: Separate solutions (0.02% in distilled water) were made for genistein, genistin, daidzein, daidzin and isoflavone concentrate in volumetric flasks. Samples were then placed in a 37° C. water bath for 17 hours, followed by rapid filtration through a 0.2 micron syringe-type filter to remove particulates. Filtered samples were then analyzed for isoflavone concentration by HPLC.

The subject of series [2] is LNCaP cells. Put plainly: In vitro secretion of PSA by LNCaP cells into media. The format is cell-based. As for the experimental part:
PSA concentrations were reduced 68% and 74% by 25 and 50 μM of genistein treatment respectively, and 31% and 42% by 25 and 50 μM of soy phytochemical concentrate treatment respectively.

Consider `O=c1c(-c2ccc(O)cc2)coc2cc(O[C@@H]3O[C@H](CO)[C@@H](O)[C@H](O)[C@H]3O)ccc12` [daidzin], for which the “Daidzin concentration in solution (solubility)” value in series [1] is 48.51 ppm.

With `O=c1c(-c2ccc(O)cc2)coc2cc(O)cc(O)c12` [genistein], the PSA concentration reduced in series [2] (25 μM) was determined as 68%; in series [2] (50 μM) it was 74%. Besides, in series [1], the “Genistein concentration in solution (solubility)” value was found to be 7.42 ppm.
